Measurements reported in US8461178B2, “Naphthyridine derivatives and the use thereof as kinase inhibitors” (Aeterna Zentaris GmbH, priority 2009, dated 2013).
Read-outs that look alike come from different tables or passages of the source.

Columns and labels:
Aurora-B = target: T1, Aurora-B (Homo sapiens, UniProt Q96GD4); assay: Cell-free kinase assay (ALPHA technology), Aurora-B; type: biochemical
T1 construct: in some cases as full-length kinases, in some cases as truncated fragments; purchased Upstate/Millipore #14-835
Method: The kinase reaction was stopped by adding 10 μl of the ALPHA bead mix (10 μg/ml, #6760617/PerkinElmer), pre-incubated with anti-phospho PLK antibody (100 pM, #5070, Cell Signaling), in 25 mM Tris, 200 mM NaCl, 100 mM EDTA and 0.3% BSA, and left to stand overnight. The luminiscence was detected the next morning in a Envision instrument (Perkin Elmer). […] 0% controls contained no ATP whereas the 100% controls contained no test substance. The IC50 values were determined with GraphPadPrism.

cRaf-Mek1-Erk2 = cRaf-Mek1-Erk2 (Homo sapiens, UniProt P04049+P28482+Q02750); settings: read-out: IC50 cRaf-Mek-Erk; at 10 μM ATP
Method: The inhibitory effect of the inventive compounds was tested on various human serine/threonine kinases and tyrosine kinases in enzymatic assays. Recombinant human kinases, for example Aurora-B, cRaf-Mek1-Erk2, Erk2, Pim-1, HIPK1, KDR, TrkA, Yes, c-Abl and others were used, in some cases as full-length kinases, in some cases as truncated fragments—but at least consisting of the functional kinase domains. The commercial kinase proteins (Proqinase, Millipore) were used as recombinant fusion proteins with GST (glutathione S-transferase) tag or His tag. Depending on the substrate type, the different kinase reactions were quantified by suitable ALPHA™ beads (PerkinElmer).
The calculation of % inhibition values per substance concentration was done by means of the following formula from the raw data determined in the Envision reader:
(§1) The controls were determined 16 fold. 0% controls contained no ATP whereas the 100% controls contained no test substance. The IC50 values were determined with GraphPadPrism.

Erk2 = target: T2, Erk2 (Homo sapiens, UniProt P28482); assay: Cell-free kinase assay (ALPHA technology), Erk2; type: biochemical; settings: for IC50: at 10 μM ATP; for dual activity against Aurora-B and Erk2 (or cRaf-Mek-Erk cascade respectively): in words
T2 construct: in some cases as full-length kinases, in some cases as truncated fragments
Method: as §1

[1] = at 10 μM ATP, read-out: IC50 Aurora-B
[2] = read-out: IC50 values against Aurora-B

Sequence of cRaf-Mek1-Erk2 (P04049 whole entry, the tested form may be a part): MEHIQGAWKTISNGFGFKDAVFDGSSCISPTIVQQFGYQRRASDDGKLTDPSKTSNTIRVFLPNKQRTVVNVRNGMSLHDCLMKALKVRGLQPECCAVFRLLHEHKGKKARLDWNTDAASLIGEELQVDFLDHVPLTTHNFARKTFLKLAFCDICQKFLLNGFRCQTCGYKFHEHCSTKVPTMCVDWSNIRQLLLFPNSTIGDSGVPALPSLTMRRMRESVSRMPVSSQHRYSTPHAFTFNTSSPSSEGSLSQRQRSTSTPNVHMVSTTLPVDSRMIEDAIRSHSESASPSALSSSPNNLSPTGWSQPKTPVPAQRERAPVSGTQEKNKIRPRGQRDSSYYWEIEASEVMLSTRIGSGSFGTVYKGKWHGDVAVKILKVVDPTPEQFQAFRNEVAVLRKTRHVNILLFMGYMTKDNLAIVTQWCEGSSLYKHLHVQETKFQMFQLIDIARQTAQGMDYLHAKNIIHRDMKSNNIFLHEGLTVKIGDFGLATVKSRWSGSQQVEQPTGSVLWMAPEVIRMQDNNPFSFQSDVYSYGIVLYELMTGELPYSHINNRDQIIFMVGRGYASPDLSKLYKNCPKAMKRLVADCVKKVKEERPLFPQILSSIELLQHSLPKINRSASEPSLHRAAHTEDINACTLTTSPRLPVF
Sequence of cRaf-Mek1-Erk2 (Q02750 whole entry, the tested form may be a part): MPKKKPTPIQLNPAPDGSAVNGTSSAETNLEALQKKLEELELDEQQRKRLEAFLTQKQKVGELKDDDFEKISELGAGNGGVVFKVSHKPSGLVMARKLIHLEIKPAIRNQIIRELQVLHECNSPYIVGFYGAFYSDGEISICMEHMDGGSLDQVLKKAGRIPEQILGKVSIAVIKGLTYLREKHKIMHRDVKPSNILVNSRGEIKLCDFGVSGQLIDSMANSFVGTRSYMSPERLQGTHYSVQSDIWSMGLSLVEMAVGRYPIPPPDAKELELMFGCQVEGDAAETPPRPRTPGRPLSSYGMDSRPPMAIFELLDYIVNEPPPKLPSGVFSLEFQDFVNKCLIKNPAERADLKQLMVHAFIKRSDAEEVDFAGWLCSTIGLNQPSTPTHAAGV
Sequence of cRaf-Mek1-Erk2 (P28482 2-360): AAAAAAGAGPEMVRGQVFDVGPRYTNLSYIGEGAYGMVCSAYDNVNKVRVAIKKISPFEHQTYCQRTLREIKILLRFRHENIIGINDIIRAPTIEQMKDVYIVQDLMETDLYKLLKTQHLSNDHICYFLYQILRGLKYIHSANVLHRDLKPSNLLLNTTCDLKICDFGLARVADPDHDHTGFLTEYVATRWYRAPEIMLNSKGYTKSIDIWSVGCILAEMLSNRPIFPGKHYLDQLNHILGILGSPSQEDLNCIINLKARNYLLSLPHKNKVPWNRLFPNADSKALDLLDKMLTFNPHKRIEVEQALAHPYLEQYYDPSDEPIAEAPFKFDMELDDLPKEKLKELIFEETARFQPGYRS
T1 sequence (Q96GD4 whole entry, the tested form may be a part): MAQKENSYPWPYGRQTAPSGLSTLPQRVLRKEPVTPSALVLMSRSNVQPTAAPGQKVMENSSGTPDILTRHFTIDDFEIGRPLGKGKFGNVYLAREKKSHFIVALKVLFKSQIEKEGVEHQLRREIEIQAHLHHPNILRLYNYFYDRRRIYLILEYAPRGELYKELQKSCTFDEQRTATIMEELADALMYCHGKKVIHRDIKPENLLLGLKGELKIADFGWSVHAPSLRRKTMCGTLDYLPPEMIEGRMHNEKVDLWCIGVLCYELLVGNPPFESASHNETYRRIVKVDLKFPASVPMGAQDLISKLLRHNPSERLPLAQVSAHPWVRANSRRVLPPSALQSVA
T2 sequence (P28482 whole entry, the tested form may be a part): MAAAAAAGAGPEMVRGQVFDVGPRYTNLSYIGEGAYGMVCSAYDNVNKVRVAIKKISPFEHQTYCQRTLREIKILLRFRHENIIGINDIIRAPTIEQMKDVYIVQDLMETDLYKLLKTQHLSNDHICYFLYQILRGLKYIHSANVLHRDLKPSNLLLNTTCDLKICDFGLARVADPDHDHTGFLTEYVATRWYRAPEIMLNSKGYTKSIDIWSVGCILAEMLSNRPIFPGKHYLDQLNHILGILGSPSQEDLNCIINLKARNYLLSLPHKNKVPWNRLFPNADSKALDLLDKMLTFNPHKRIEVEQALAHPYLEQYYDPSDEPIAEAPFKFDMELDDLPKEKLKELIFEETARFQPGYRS

SMILES	IC50 (Aurora-B; [1])	IC50 (cRaf-Mek1-Erk2)	IC50 (Erk2)	melting point	dual activity against Aurora-B and Erk2 (or cRaf-Mek-Erk cascade respectively) (Erk2)	IC50 (Aurora-B; [2])
CC(C)NC(=O)Nc1ccnc2cc(-c3cnn(C)c3)cnc12 [Compound 30, 1-Isopropyl-3-[7-(1-methyl-1H-pyrazol-4-yl)-[1,5]naphthyridin-4-yl]-urea]	0.137 µM	2.17 µM	> 100 µM			
CCNC(=O)Nc1ccnc2cc(-c3cc(Cl)c(O)c(Cl)c3)cnc12 [Compound 15, 1-[7-(3,5-Dichloro-4-hydroxy-phenyl)-[1,5]naphthyridin-4-yl]-3-ethyl-urea]	0.227 µM	7.85 µM	> 31.6 µM	> 300 °C		
CCNC(=S)Nc1ccc2ncc(Nc3cc(OC)c(OC)c(OC)c3)cc2n1 [Compound 6, 1-Ethyl-3-[7-(3,4,5-trimethoxy-phenylamino)-[1,5]naphthyridin-2-yl]-thiourea]				237 to 238 °C		
CCNC(=O)Nc1ccc2ncc(-c3ccc(OC)cc3)cc2n1 [Compound 1, 1-Ethyl-3-[7-(4-methoxy-phenyl)-[1,5]naphthyridin-2-yl]urea]	2.23 µM			264 to 265 °C	dual activity	
Cn1cc(-c2cnc3ccc(NC(=O)NC(C)(C)C)nc3c2)cn1 [Compound 26, 1-tert-Butyl-3-[7-(1-methyl-1H-pyrazol-4-yl)-[1,5]naphthyridin-2-yl]-urea]	0.26 µM	0.096 µM	0.429 µM		dual activity	
Cn1cc(-c2cnc3c(NC(=O)NC4CCC4)ccnc3c2)cn1 [Compound 17, 1-Cyclobutyl-3-[7-(1-methyl-1H-pyrazol-4-yl)-[1,5]naphthyridin-4-yl]-urea]	0.048 µM	2.17 µM	> 100 µM	215 to 216 °C		< 0.1 µM
Cn1cc(-c2cnc3ccc(NC(=O)Nc4ccccc4)nc3c2)cn1 [Compound 27, 1-[7-(1-Methyl-1H-pyrazol-4-yl)-[1,5]naphthyridin-2-yl]-3-phenyl-urea]	1.14 µM	0.157 µM	0.191 µM		dual activity	
Cn1cc(-c2cnc3c(NC(=O)NCCCCc4ccccc4)ccnc3c2)cn1 [Compound 21, 1-[7-(1-Methyl-1H-pyrazol-4-yl)-[1,5]naphthyridin-4-yl]-3-(4-phenyl-butyl)-urea]	0.141 µM	16.9 µM	> 31.6 µM	185 to 186 °C		
Cn1cc(-c2cnc3c(NC(=O)NC4CCCC4)ccnc3c2)cn1 [Compound 34, 1-Cyclopentyl-3-[7-(1-methyl-1H-pyrazol-4-yl)-[1,5]naphthyridin-4-yl]-urea]	0.108 µM	0.676 µM	4.08 µM	207 to 208 °C		
COc1cc(-c2cnc3c(NC(=O)NC(C)(C)C)ccnc3c2)ccc1O [Compound 12, 1-tert-Butyl-3-[7-(4-hydroxy-3-methoxy-phenyl)-[1,5]naphthyridin-4-yl]-urea]	1.58 µM	> 31.6 µM	> 100 µM	158 to 159 °C		
COc1ccc(-c2cnc3c(NC(=O)NC(C)(C)C)ccnc3c2)cc1OC [Compound 8, 1-tert-Butyl-3-[7-(3,4-dimethoxy-phenyl)-[1,5]naphthyridin-4-yl]-urea]	0.714 µM	~100 µM	> 100 µM	215 to 216 °C		
Cn1cc(-c2cnc3c(NC(=O)NC4CCCCC4)ccnc3c2)cn1 [Compound 22, 1-Cyclohexyl-3-[7-(1-methyl-1H-pyrazol-4-yl)-[1,5]naphthyridin-4-yl]-urea]	0.354 µM	> 31.6 µM	> 100 µM	200 to 201 °C		
CCNC(=O)Nc1ccc2ncc(-c3ccc(OC)c(OC)c3)cc2n1 [Compound 2, 1-[7-(3,4-Dimethoxy-phenyl)-[1,5]naphthyridin-2-yl]-3-ethyl-urea]	0.624 µM			218 to 219 °C	dual activity	
O=C(Nc1ccnc2cc(-c3cnn(CCN4CCOCC4)c3)cnc12)NC1CC1 [Compound 38, 1-Cyclopropyl-3-{7-[1-(2-morpholin-4-yl-ethyl)-1H-pyrazol-4-yl]-[1,5]naphthyridin-4-yl}-urea]	0.028 µM	2.81 µM	> 100 µM	127 to 129 °C		< 0.1 µM
Cn1cc(-c2cnc3c(NC(=O)NCCc4ccccc4)ccnc3c2)cn1 [Compound 33, 1-[7-(1-Methyl-1H-pyrazol-4-yl)-[1,5]naphthyridin-4-yl]-3-phenethyl-urea]	0.086 µM	16.6 µM	> 100 µM	222 to 223 °C		
Cn1cc(-c2cnc3c(NC(=O)NC4CC(F)(F)C4)ccnc3c2)cn1 [Compound 24, 1-(3,3-Difluoro-cyclobutyl)-3-[7-(1-methyl-1H-pyrazol-4-yl)-[1,5]naphthyridin-4-yl]-urea]	0.784 µM	26.2 µM	> 100 µM	229 to 230 °C		
Cn1cc(-c2cnc3ccc(NC(=O)NCc4ccccc4)nc3c2)cn1 [Compound 28, 1-Benzyl-3-[7-(1-methyl-1H-pyrazol-4-yl)-[1,5]naphthyridin-2-yl]-urea]	0.579 µM			257 to 258 °C	dual activity	
O=C(Nc1ccnc2cc(-c3ccsc3)cnc12)NC1CC1 [Compound 36, 1-Cyclopropyl-3-(7-thiophen-3-yl-[1,5]naphthyridin-4-yl)-urea]	0.103 µM	3.85 µM	> 100 µM	228 to 229 °C		
Cn1cc(-c2cnc3c(NC(=O)Nc4ccccc4)ccnc3c2)cn1 [Compound 23, 1-[7-(1-Methyl-1H-pyrazol-4-yl)-[1,5]naphthyridin-4-yl]-3-phenyl-urea]	1.26 µM	> 100 µM	> 100 µM	294 to 295 °C		
COc1cc(-c2cnc3ccc(NC(=O)NC(C)(C)C)nc3c2)ccc1O [Compound 4, 1-tert-Butyl-3-[7-(4-hydroxy-3-methoxy-phenyl)-[1,5]naphthyridin-2-yl]-urea]	0.227 µM			286 to 287 °C	dual activity	
Cn1cc(-c2cnc3c(NC(=O)NCC(F)(F)F)ccnc3c2)cn1 [Compound 20, 1-[7-(1-Methyl-1H-pyrazol-4-yl)-[1,5]naphthyridin-4-yl]-3-(2,2,2-trifluoro-ethyl)-urea]	0.129 µM	27.3 µM	> 100 µM	> 300 °C		
CCNC(=O)Nc1ccnc2cc(-c3cc(C)c(O)c(C)c3)cnc12 [Compound 16, 1-Ethyl-3-[7-(4-hydroxy-3,5-dimethyl-phenyl)-[1,5]naphthyridin-4-yl]-urea]	3.85 µM	> 31.6 µM	> 31.6 µM	213 to 214 °C		
COc1ccc(-c2cnc3ccc(NC(=O)NC(C)(C)C)nc3c2)cc1OC [Compound 3, 1-tert-Butyl-3-[7-(3,4-dimethoxy-phenyl)-[1,5]naphthyridin-2-yl]-urea]	0.805 µM	1.12 µM	1.72 µM	279 to 280 °C	dual activity	
CCNC(=O)Nc1ccnc2cc(-c3cnn(C)c3)cnc12 [Compound 10, 1-Ethyl-3-[7-(1-methyl-1H-pyrazol-4-yl)-[1,5]naphthyridin-4-yl]-urea]	0.038 µM	> 31.6 µM	> 100 µM	215 to 216 °C		< 0.1 µM
CCNC(=O)Nc1ccnc2cc(-c3ccc(OC)c(OC)c3)cnc12 [Compound 7, 1-[7-(3,4-Dimethoxy-phenyl)-[1,5]naphthyridin-4-yl]-3-ethyl-urea]	0.136 µM	~100 µM	> 100 µM	215 to 216 °C		
CC(C)(C)NC(=O)Nc1ccnc2cc(-c3cc(Cl)c(O)c(Cl)c3)cnc12 [Compound 13, 1-tert-Butyl-3-[7-(3,5-dichloro-4-hydroxy-phenyl)-[1,5]naphthyridin-4-yl]-urea]	0.5 µM	11 µM	> 100 µM	> 300 °C		
Cn1cc(-c2cnc3c(NC(=O)NCc4ccccc4)ccnc3c2)cn1 [Compound 31, 1-Benzyl-3-[7-(1-methyl-1H-pyrazol-4-yl)-[1,5]naphthyridin-4-yl]-urea]	0.066 µM	> 100 µM	> 100 µM	237 to 238 °C		
